Test system: MDA-231 cancer cells
Test: Inhibition of proliferation assay, cell confluence (IncuCyte live cell imaging)
Type: cell-based
Details: MDA-231 cells, concentration 10 uM; relative confluence normalised to time zero, images every 3 h over 4-5 d
Excerpt: Inhibition of Proliferation Assay Cell Confluence The confluence value is a surrogate for cell proliferation and growth. The value is expressed as a percent confluence, which represents the fraction of culture dish-surface that is occupied by cells. As the number of cells in the dish increases over time due to proliferation, so will their coverage of that surface increase. Expansion of the cell population on the cell culture-dish surface and confluence have mostly a linear relationship until the cells on the plate surface begin to reach saturation or maximum density. Confluence is determined based on image analysis. Image based software can identify objects in the image field base on changes to pixel density in a grey scale image. The software can then assign a mask to those pixels within the object. Objects can be ‘gated’ out based on size and shape. To determine cell confluence, images of cells are first masked as objects. The surface area of the image that is masked is measured and compared to the total surface area of the culture dish surface to obtain a percent confluence. MDA-231 cancer cells were obtained from ATCC. Cells were cultured in Dulbecco's Modified Eagle Medium (DMEM) supplemented with 10% Fetal Bovine Serum (FBS), 2 mM Glutamax, 1 mM Non Essential Amino Acid (NEAA) solution and 1 mM sodium pyruvate. Compounds were dissolved in DMSO at 10 mM and diluted in cellular medium and tested at 10 μM (micromolar). Final DMSO concentrations were <0.1%. Images were acquired with an IncuCyte Live Cell Imaging microscopy (Essen Bioscience) at every 3 h under cell culture conditions with 10× objective over 4-5 d. Cell confluence was calculated from one field of view per well using the IncuCyte in-built algorithm. Relative confluence values were obtained by normalising each value to the time zero value in each sample.

SMILES | % Confluence
CC[C@H]1OC(=O)[C@H](C)[C@@H](O[C@H]2C[C@@](C)(OC)[C@@H](O)[C@H](C)O2)[C@H](C)[C@@H](O[C@@H]2O[C@H](C)C[C@H](N(C)C)[C@H]2O)[C@](C)(O)C[C@@H](C)CN(C)[C@H](C)[C@@H](OC(=O)NCCCCCCCCCC[P+](c2ccccc2)(c2ccccc2)c2ccccc2)[C@]1(C)O.[Br-] [Example 19, (2R,3R,4R,5R,8R,10R,11R,12S,13S,14R)-11-{[(2S,3R,4S,6R)-4-(dimethylamino)-3-hydroxy-6-methyloxan-2-yl]oxy}-2-ethyl-3,10-dihydroxy-13-{[(2R,4R,5S,6S)-5-hydroxy-4-methoxy-4,6-dimethyloxan-2-yl]oxy}-3,5,6,8,10,12,14-heptamethyl-15-oxo-1-oxa-6-azacyclopentadecan-4-yl N-[10-(triphenylphosphoniumyl)decyl]carbamate bromide] | 9.7%
CC[C@H]1OC(=O)[C@H](C)[C@@H](O[C@H]2C[C@@](C)(OC)[C@@H](O)[C@H](C)O2)[C@H](C)[C@@H](O[C@@H]2O[C@H](C)C[C@H](N(C)C)[C@H]2O)[C@](C)(O)C[C@@H](C)CN(C)[C@H](C)[C@@H](OC(=O)NCCCCCCCC[P+](c2ccccc2)(c2ccccc2)c2ccccc2)[C@]1(C)O.[Br-] [Example 20, (2R,3R,4R,5R,8R,10R,11R,12S,13S,14R)-11-{[(2S,3R,4S,6R)-4-(dimethylamino)-3-hydroxy-6-methyloxan-2-yl]oxy}-2-ethyl-3,10-dihydroxy-13-{[(2R,4R,5S,6S)-5-hydroxy-4-methoxy-4,6-dimethyloxan-2-yl]oxy}-3,5,6,8,10,12,14-heptamethyl-15-oxo-1-oxa-6-azacyclopentadecan-4-yl N-[8-(triphenylphosphoniumyl)octyl]carbamate bromide] | 13.5%
CC[C@H]1OC(=O)[C@H](C)[C@@H](O)[C@H](C)[C@@H](O[C@@H]2O[C@H](C)C[C@H](N(C)C)[C@H]2O)[C@](C)(O)C[C@@H](C)CN(C(=O)CCCCCCCCCCCCC[P+](c2ccccc2)(c2ccccc2)c2ccccc2)[C@H](C)[C@@H](O)[C@]1(C)O [Example 21, {14-[(2R,3S,4R,5R,8R,10R,11R,12S,13S,14R)-11-{[(2S,3R,4S,6R)-4-(dimethylamino)-3-hydroxy-6-methyloxan-2-yl]oxy}-2-ethyl-3,4,10,13-tetrahydroxy-3,5,8,10,12,14-hexamethyl-15-oxo-1-oxa-6-azacyclopentadecan-6-yl]-14-oxotetradecyl}triphenylphosphonium hexafluorophosphate(V)] | 8%
CC[C@H]1OC(=O)[C@H](C)[C@@H](O[C@H]2C[C@@](C)(OC)[C@@H](O)[C@H](C)O2)[C@H](C)[C@@H](O[C@@H]2O[C@H](C)C[C@H](N(C)C)[C@H]2O)[C@](C)(O)C[C@@H](C)CN(CCCCCC(=O)N(C)CC[P+](c2ccccc2)(c2ccccc2)c2ccccc2)[C@H](C)[C@@H](O)[C@]1(C)O.[Br-] [Example 22] | 102.7%
CC[C@H]1OC(=O)[C@H](C)[C@@H](O[C@H]2C[C@@](C)(OC)[C@@H](O)[C@H](C)O2)[C@H](C)[C@@H](O[C@@H]2O[C@H](C)C[C@H](N(C)C)[C@H]2O)[C@](C)(O)C[C@@H](C)CN(C(=O)CCOCCOCC[P+](c2ccccc2)(c2ccccc2)c2ccccc2)[C@H](C)[C@@H](O)[C@]1(C)O.[Br-] [Example 23, [2-(2-{3-[(2R,3S,4R,5R,8R,10R,11R,12S,13S,14R)-11-{[(2S,3R,4S,6R)-4-(dimethylamino)-3-hydroxy-6-methyloxan-2-yl]oxy}-2-ethyl-3,4,10-trihydroxy-13-{[(2R,4R,5S,6S)-5-hydroxy-4-methoxy-4,6-dimethyloxan-2-yl]oxy}-3,5,6,8,10,12,14-hexamethyl-15-oxo-1-oxa-6-azacyclopentadecan-6-yl]-3-oxopropoxy}ethoxy)ethyl]triphenylphosphonium bromide] | 118%
CC[C@H]1OC(=O)[C@H](C)[C@@H](O[C@H]2C[C@@](C)(OC)[C@@H](O)[C@H](C)O2)[C@H](C)[C@@H](O[C@@H]2O[C@H](C)C[C@H](N(C)C)[C@H]2O)[C@](C)(O)C[C@@H](C)CN(C(=O)CCCCN(C)CC[P+](c2ccccc2)(c2ccccc2)c2ccccc2)[C@H](C)[C@@H](O)[C@]1(C)O.[Br-] [Example 24, [2-({5-[(2R,3S,4R,5R,8R,10R,11R,12S,13S,14R)-11-{[(2S,3R,4S,6R)-4-(dimethylamino)-3-hydroxy-6-methyloxan-2-yl]oxy}-2-ethyl-3,4,10-trihydroxy-13-{[(2R,4R,5S,6S)-5-hydroxy-4-methoxy-4,6-dimethyloxan-2-yl]oxy}-3,5,6,8,10,12,14-hexamethyl-15-oxo-1-oxa-6-azacyclopentadecan-6-yl]-5-oxopentyl}(methyl)amino)ethyl]triphenylphosphonium bromide] | 49.1%
CC[C@H]1OC(=O)[C@H](C)[C@@H](O[C@H]2C[C@@](C)(OC)[C@@H](O)[C@H](C)O2)[C@H](C)[C@@H](O[C@@H]2O[C@H](C)C[C@H](N(C)C)[C@H]2O)[C@](C)(O)C[C@@H](C)CN(C(=O)CCCCCCCCCC[P+](c2ccccc2)(c2ccccc2)c2ccccc2)[C@H](C)[C@@H](O)[C@]1(C)O.[Cl-] [Example 25, {11-[(2R,3S,4R,5R,8R,10R,11R,12S,13S,14R)-11-{[(2S,3R,4S,6R)-4-(dimethylamino)-3-hydroxy-6-methyloxan-2-yl]oxy}-2-ethyl-3,4,10-trihydroxy-13-{[(2R,4R,5S,6S)-5-hydroxy-4-methoxy-4,6-dimethyloxan-2-yl]oxy}-3,5,8,10,12,14-hexamethyl-15-oxo-1-oxa-6-azacyclopentadecan-6-yl]-11-oxoundecyl}triphenylphosphonium chloride] | 4.4%
